The values that follow come from patent publication US20220112204A1, “SUBSTITUTED DIHYDROPYRANOPYRIMIDINE COMPOUNDS AS KRAS INHIBITORS” (ACCUTAR BIOTECHNOLOGY INC., priority 2020, published 2022).

Where two headings read alike, the source gives them in different places. A value given as a limit tells only on which side of the number the result lay.

By GI50 is commonly meant the concentration that inhibits growth by half. For orientation: IC50 means the concentration that gives 50% inhibition.

Assay [1] addresses T1, KRAS-G12C mutant (Homo sapiens, UniProt P01116, G12C). The assay can be described thus: Gel shift assay (SDS-PAGE) for covalent modification of KRAS G12C. The conditions noted are these: 0.5 μM compound, 1 μM GDP-bound KRAS G12C, 25° C., 5 minutes, shift indicative of covalent cysteine conjugation. The class given is binding. Summed up: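 Compounds at 0.5 μM were incubated with 1 μM GDP-bound untagged KRAS G12C or wild type for 5 minutes at 25° C in Tris pH 7.5, NaCl, MgCl2, DTT buffer. Reactions were quenched in SDS loading buffer and run on 4%-20% SDS-PAGE with Coomassie stain. Band mobility shift was taken as covalent cysteine conjugation.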

In assay [2] the test system is MIA PaCa-2 cell line. The assay can be described thus: 3D cell growth assay (CellTiter-Glo), MIA PaCa-2. The assay is classed as cell-based. The note with it: Homo sapiens, MIA PaCa-2, 144 h, 6 days, read-out: 3D growth inhibition GI50. As for the experimental part: (§1) MIA PaCa-2 (ATCC), NCI-H358 (ATCC), NCI-H23 (ATCC), SW837 and A549 (ATCC) cells were plated in round bottom 96-well spheroid microplates (Corning, 4520) at 3000 cells/well in 90 ul of RPMI growth medium containing 10% FBS and 1% Penicillin Streptomycin. Cells were incubated at 37° C. overnight. The following day, the test compound was administered to the cells by using 10× compound stock solution prepared in growth medium at various concentrations. After administration of the compound, cells were then incubated at 37° C. for 6 days. Before CellTiter-Glo assay, the plates were equilibrated at room temperature for approximately 10 minutes. 100 ul of CellTiter-Glo® Reagent (Promega, G7573) was added to each well. The plates were then incubated at room temperature for 10 minutes and luminescence was recorded by EnSpire plate reader (PerkinElmer). Table 6 illustrates growth inhibition (G150) by exemplary compounds 1-10 of the present disclosure in a MIA PaCa-2 cell line 6 days after administration in 3D cell culture. A: >0.1 nM and <1 nM; B: >=1 nM and <10 nM; C: >=10 nM and <100 nM; D: >100 nM.
On the technique in general: In ATP-based viability assays light output follows the ATP content of the culture.

Assay [3] has as its system phospho-ERK1/2 (Thr202/Tyr204) in SW837 cells. The assay can be described thus: pERK and ERK Western blot analysis, SW837. The assay is classed as cell-based. The note with it: Homo sapiens; SW837, KRAS G12C, 4 hours. Here is the method: (§2) MIA PaCa-2 (ATCC), NCI-H358 (ATCC), NCI-H23 (ATCC), SW837 and A549 (ATCC) cells were plated in 24-well plates at 2×10^5cells/well in RPMI growth medium containing 10% FBS and 1× Penicillin Streptomycin. They were then incubated at 37° C. overnight. The following day, the test compound was administered to the cells by using 1000× compound stock solution prepared in DMSO at various concentrations. After administration of the compound, the cells were then incubated at 37° C. for 4 hours. Upon completion, the cells were washed with PBS and protein was collected in Laemmli sample buffer (1×; VWR International). Proteins in cell lysate were separated by SDS-PAGE and transferred to Odyssey nitrocellulose membranes (Licor) with iblot® dry blotting transfer system (ThermoFisher). Nonspecific binding was blocked by incubating membranes with Intercept Blocking Buffer (Licor) for 1 hour at room temperature with gentle shaking. The membranes were then incubated overnight at 4° C. with primary antibodies rabbit anti-phospho p44/42 MAPK (Erk1/2) (1:2,000, Cell Signaling, 4370) and mouse anti-p44/42 MAPK (Erk1/2) (1:1,000, Cell Signaling, 4696) diluted in Intercept Blocking Buffer containing 0.1% Tween 20. […] The bands were quantified using Image Studio™ Software (Licor).
Background: Immunoblotting shows a protein as a band on a membrane.

In assay [4] the test system is SW837 cells. Kind of assay: 3D cell growth assay (CellTiter-Glo), SW837. The assay is classed as cell-based. The conditions noted are these: Homo sapiens, 144 h, SW837, KRAS G12C, 6 days, read-out: 3D growth inhibition GI50. As for the experimental part: as §1
The subject of assay [5] is NCI-H358 cells. Kind of assay: 3D cell growth assay (CellTiter-Glo), NCI-H358. The assay is classed as cell-based. The note with it: Homo sapiens, 144 h, NCI-H358, KRAS G12C, 6 days, read-out: 3D growth inhibition GI50. Here is the method: as §1
Assay [6] relates to NCI-H23 cells. The assay can be described thus: 3D cell growth assay (CellTiter-Glo), NCI-H23. The conditions noted are these: Homo sapiens, 144 h, NCI-H23, KRAS G12C, 6 days, read-out: 3D growth inhibition GI50. The assay is classed as cell-based. As for the experimental part: as §1
The test system of assay [7] is phospho-ERK1/2 (Thr202/Tyr204) in NCI-H358 cells. Kind of assay: pERK and ERK Western blot analysis, NCI-H358. The class given is cell-based. The note with it: Homo sapiens; NCI-H358, KRAS G12C, 4 hours. Here is the method:
as §2

In assay [8] the test system is phospho-ERK1/2 (Thr202/Tyr204) in NCI-H23 cells. The assay can be described thus: pERK and ERK Western blot analysis, NCI-H23. The class given is cell-based. The note with it: Homo sapiens; NCI-H23, KRAS G12C, 4 hours. Here is the method: as §2
Assay [9] has as its system phospho-ERK1/2 (Thr202/Tyr204) in MIA PaCa-2 cell line. The assay can be described thus: pERK and ERK Western blot analysis, MIA PaCa-2. The note with it: Homo sapiens. The class given is cell-based. In a few lines:
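Cells were seeded at 2×10^5 cells/well in RPMI with 10% FBS and treated next day with compound from 1000× DMSO stocks for 4 h at 37° C. Lysates were immunoblotted for phospho-p44/42 and total Erk1/2 with infrared-dye secondaries, and bands were quantified by densitometry.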

The subject of assay [10] is A549 cells. The assay can be described thus: 3D cell growth assay (CellTiter-Glo), A549. The class given is cell-based. The conditions noted are these: Homo sapiens, 144 h, A549, KRAS G12S, 6 days, read-out: 3D growth inhibition GI50. As for the experimental part:
as §1

Assay [11] concerns phospho-ERK1/2 (Thr202/Tyr204) in A549 cells. Kind of assay: pERK and ERK Western blot analysis, A549. The class given is cell-based. The note with it: Homo sapiens; A549, KRAS G12S, 4 hours. Here is the method: as §2
In assay [12] the target is T1, KRAS-G12C mutant. The assay can be described thus: TR-FRET assay of SOS1-assisted KRAS GDP/GTP exchange. The assay is classed as biochemical. In a few lines: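 His-tagged GDP-KRAS-G12C (40 nM) preincubated 1 h at 4° C with 8 nM Tb-anti-His in Tris pH 7.5, 1 mM MgCl2, 2% DMSO; compounds added, then BODIPY-GTP (200 nM) and SOS-1 (1 μM) to start exchange. TR-FRET 520/620 nm ratio, SOS-free background subtracted; % inhibition versus DMSO, IC50 by variable-slope nonlinear regression.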

In the case of `C=C(F)C(=O)N1CCN(c2nc(OC[C@@]34CCCN3C[C@H](F)C4)nc3c2CO[C@H](c2cccc4cccc(Cl)c24)C3)C[C@@H]1CC#N` [Compound 64, 2-((S)-4-((S)-7-(8-chloronaphthalen-1-yl)-2-(((2R,7aS)-2-fluorotetrahydro-1H-pyrrolizin-7a(5H)-yl)methoxy)-7,8-dihydro-5H-pyrano[4,3-d]pyrimidin-4-yl)-1-(2-fluoroacryloyl)piperazin-2-yl)acetonitrile], the “KRAS-G12C molecular weight shift” value in [1] is given as “Yes”. Also, the GI50 was 0.1 to 1 nM in assay [2] (MIA PaCa-2 cell line, 3D cell culture); 0.3 nM in assay [2] (MiaPaCa2, KRAS G12C, 3D); 4.1 nM in assay [4]; 0.2 nM in assay [5]; 2.1 nM in assay [6]; greater than 300 nM in [10]. Moreover, the 50% inhibitory concentration (IC50) was 1.2 nM in assay [3]; 2.5 nM in assay [7]; 1.7 nM in [8]; 2.4 nM in assay [9] (MIA PaCa-2, MiaPaCa2, KRAS G12C, 4 hours, read-out: pERK IC50); 1 to 10 nM in assay [9] (MIA PaCa-2 cell line, 4 hours after incubation, read-out: 2D pERK IC50); greater than 30000 nM in assay [11]. This compound yielded an IC50 in [12] of 20 nM.
